pIC50: −log10 of the molar value.

Test [1] deals with T1, GPR43 (Homo sapiens, UniProt O15552).
T1 construct: expressed in transfected cells
T1 sequence (O15552 1-330): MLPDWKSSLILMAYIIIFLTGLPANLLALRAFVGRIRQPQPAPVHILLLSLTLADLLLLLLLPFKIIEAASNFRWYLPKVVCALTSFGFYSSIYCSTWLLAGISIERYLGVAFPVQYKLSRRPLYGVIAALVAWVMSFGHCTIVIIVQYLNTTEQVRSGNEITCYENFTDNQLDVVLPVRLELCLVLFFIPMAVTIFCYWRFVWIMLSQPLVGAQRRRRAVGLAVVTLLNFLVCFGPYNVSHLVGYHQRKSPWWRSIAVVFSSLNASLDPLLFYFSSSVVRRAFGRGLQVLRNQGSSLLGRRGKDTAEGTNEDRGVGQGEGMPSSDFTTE
The experiment in a line: Calcium mobilization assay with probenecid. The test is classed as cell-based. Conditions: GPR43 stably expressing cells; triggered with sodium acetate at EC80; 2.5 mM probenecid; read-out: GPR43 assay with probenicid IC50. The procedure, abridged:
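Cells stably expressing GPR43 plated overnight at 37 °C, then loaded 2 h with Calcium 4 dye plus 2.5 mM probenecid. […]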
On the technique in general: Calcium assays in cells follow changes in intracellular calcium, usually with a dye or a luminescent sensor.

The target in test [2] is T1, GPR43. The experiment in a line: Calcium mobilization assay without probenecid. Conditions: GPR43 stably expressing cells, triggered with sodium acetate at EC80, read-out: GPR43 assay without probenicid IC50. The test is classed as cell-based. The gist of the method: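 In GPR43-expressing cells loaded with a Calcium 4 dye, antagonism was tested by a 15 min compound preincubation at 37 °C, then a sodium acetate challenge at EC80, with Ca-flux read on injection. For agonism, Ca-flux was recorded directly on compound injection.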

In the case of `COC(=O)CN(Cc1ccc(Cl)cc1)C(=O)C1(C)CCN1C(=O)Cc1cc(C)cc(C)c1` (stereo not shown) [Compound 48, ((4-Chloro-benzyl)-{1-[2-(3,5-dimethyl-phenyl)-acetyl]-2-methyl-azetidine-2-carbonyl}-amino)-acetic acid methyl ester], the pIC50 on GPR43 [1] and on GPR43 [2] was 6.00 to 6.30 throughout.

Take `Cc1cc(C)cc(CC(=O)N2CCC2(C)C(=O)N(CC(=O)O)Cc2ccc(Cl)cc2)c1` (stereo not shown) [Compound 49, ((4-Chloro-benzyl)-{1-[2-(3,5-dimethyl-phenyl)-acetyl]-2-methyl-azetidine-2-carbonyl}-amino)-acetic acid]: the pIC50 on GPR43 [1] and at GPR43 [2] was 6.30 to 7.00 throughout.

With `Cc1c(C(=O)N2CCC2(C)C(=O)N(C)Cc2ccc(Cl)cc2)oc2ccccc12` (stereo not shown) [Compound 50, N-(4-chlorobenzyl)-N,2-dimethyl-1-(3-methylbenzofuran-2-carbonyl)azetidine-2-carboxamide], the pIC50 at GPR43 [1] and on GPR43 [2] was less than 6.00 in each case.

Consider `Cc1cccc(CNC(=O)C2(C)CCN2C(=O)Cc2ccc(Cl)cc2Cl)c1` (stereo not shown) [Compound 51, 1-[2-(2,4-Dichloro-phenyl)-acetyl]-2-methyl-azetidine-2-carboxylic acid 3-methyl-benzylamide], for which the pIC50 on GPR43 [1] and at GPR43 [2] was less than 6.00 in each case.

Turning to `CC1(C(=O)NCc2ccc(Cl)cc2)CCN1C(=O)C1(c2ccc(Cl)cc2Cl)CC1` (stereo not shown) [Compound 52, N-(4-chlorobenzyl)-1-(1-(2,4-dichlorophenyl)cyclopropanecarbonyl)-2-methylazetidine-2-carboxamide], the pIC50 at GPR43 [1] and at GPR43 [2] was less than 6.00 throughout.

For `CNC(=O)CN(Cc1ccc(Cl)cc1)C(=O)C1(C)CCN1C(=O)Cc1cc(C)cc(C)c1` (stereo not shown) [Compound 53, 1-[2-(3,5-Dimethyl-phenyl)-acetyl]-2-methyl-azetidine-2-carboxylic acid (4-chloro-benzyl)-methylcarbamoylmethyl-amide], the pIC50 on GPR43 [1] and at GPR43 [2] was 6.30 to 7.00 throughout.

Regarding `Cc1cc(C)cc(CC(=O)N2CCC2(C)C(=O)N(CC(=O)N(C)C)Cc2ccc(Cl)cc2)c1` (stereo not shown) [Compound 54, 1-[2-(3,5-Dimethyl-phenyl)-acetyl]-2-methyl-azetidine-2-carboxylic acid (4-chloro-benzyl)-dimethylcarbamoylmethyl-amide], the pIC50 (as a rule, the IC50 on a negative log10 scale, so that one unit is a factor of ten) at GPR43 [1] is less than 6.00; at GPR43 [2], 6.00 to 6.30.

Consider `COC(=O)[C@H](C)N(Cc1ccc(Cl)cc1)C(=O)C1(C)CCN1C(=O)Cc1cc(C)cc(C)c1` (stereo partly drawn) [Compound 55, (S)-2-((4-Chloro-benzyl)-{1-[2-(3,5-dimethyl-phenyl)-acetyl]-2-methyl-azetidine-2-carbonyl}-amino)-propionic acid methyl ester], for which the negative logarithm of the IC50 (pIC50) on GPR43 [1] and on GPR43 [2] was less than 6.00 in each case.

Turning to `COCCN(Cc1ccc(Cl)cc1)C(=O)C1(C)CCN1C(=O)Cc1cc(C)cc(C)c1` (stereo not shown) [Compound 56, 1-[2-(3,5-Dimethyl-phenyl)-acetyl]-2-methyl-azetidine-2-carboxylic acid (4-chloro-benzyl)-(2-methoxy-ethyl)-amide], the pIC50 on GPR43 [1] and on GPR43 [2] was less than 6.00 each time.

As to `CC1(C(=O)NCc2ccc(Cl)cc2)CCN1C(=O)Cc1csc2ccccc12` (stereo not shown) [Compound 57, 1-(2-Benzo[b]thiophen-3-yl-acetyl)-2-methyl-azetidine-2-carboxylic acid 4-chloro-benzylamide], the pIC50 on GPR43 [1] and on GPR43 [2] was less than 6.00 throughout.

On to `CCOC(=O)CN(Cc1ccc(Cl)cc1)C(=O)C1(C)CCN1C(=O)Cc1csc2ccccc12` (stereo not shown) [Compound 58, [[1-(2-Benzo[b]thiophen-3-yl-acetyl)-2-methyl-azetidine-2-carbonyl]-(4-chloro-benzyl)-amino]-acetic acid ethyl ester], for which the negative logarithm of the IC50 (pIC50) at GPR43 [1] and at GPR43 [2] was 6.30 to 7.00 each time.

Consider `Cc1cc(C)cc(CC(=O)N2CCC2(C)C(=O)N(CC(=O)O)Cc2cccc(C)c2)c1` (stereo not shown) [Compound 59, [{1-[2-(3,5-Dimethyl-phenyl)-acetyl]-2-methyl-azetidine-2-carbonyl}-(3-methyl-benzyl)-amino]-acetic acid], for which the pIC50 on GPR43 [1] and at GPR43 [2] was less than 6.00 throughout.

Consider `COC(=O)CN(Cc1cccc(Cl)c1)C(=O)C1(C)CCN1C(=O)Cc1csc2ccccc12` (stereo not shown) [Compound 60, [[1-(2-Benzo[b]thiophen-3-yl-acetyl)-2-methyl-azetidine-2-carbonyl]-(3-chloro-benzyl)-amino]acetic acid methyl ester], for which the results for the pIC50 at GPR43 [1] and at GPR43 [2] were 6.00 to 6.30 and less than 6.00, respectively.

As for `COC(=O)CCCN(Cc1ccc(Cl)cc1)C(=O)C1(C)CCN1C(=O)Cc1cc(C)cc(C)c1` (stereo not shown) [Compound 63, 4-((4-Chloro-benzyl)-{1-[2-(3,5-dimethyl-phenyl)-acetyl]-2-methyl-azetidine-2-carbonyl}-amino)-butyric acid methyl ester], the pIC50 at GPR43 [1] and on GPR43 [2] was 6.30 to 7.00 in each case.

As for `CC1(C(=O)N(CC(=O)O)Cc2cccc(Cl)c2)CCN1C(=O)Cc1csc2ccccc12` (stereo not shown) [Compound 66, [[1-(2-Benzo[b]thiophen-3-yl-acetyl)-2-methyl-azetidine-2-carbonyl]-(3-chloro-benzyl)-amino]-acetic acid], the figures for the pIC50 at GPR43 [1] and on GPR43 [2] were 6.00 to 6.30 and 6.30 to 7.00, respectively.

As for `Cc1cc(C)cc(CC(=O)N2CCC2(C)C(=O)N(CC#N)Cc2ccc(Cl)cc2)c1` (stereo not shown) [Compound 68, 1-[2-(3,5-dimethyl-phenyl)-acetyl]-2-methyl-azetidine-2-carboxylic acid (4-chloro-benzyl)-cyanomethyl-amide], the pIC50 on GPR43 [1] and at GPR43 [2] was 6.30 to 7.00 in each case.

As to `Cc1cccc(CN(CC(=O)O)C(=O)C2(C)CCN2C(=O)Cc2csc3ccccc23)c1` (stereo not shown) [Compound 69, [[1-(2-Benzo[b]thiophen-3-yl-acetyl)-2-methyl-azetidine-2-carbonyl]-(3-methyl-benzyl)-amino]-acetic acid], the pIC50 was 6.00 to 6.30 on GPR43 [1] and less than 6.00 on GPR43 [2].

Turning to `Cc1cc(C)cc(CC(=O)N2CCC2(C)C(=O)N(CCC(N)=O)Cc2ccc(Cl)cc2)c1` (stereo not shown) [Compound 71, 1-[2-(3,5-Dimethyl-phenyl)-acetyl]-2-methyl-azetidine-2-carboxylic acid (2-carbamoyl-ethyl)-(4-chloro-benzyl)-amide], the pIC50 was 6.00 to 6.30 at GPR43 [1] and less than 6.00 on GPR43 [2].

Take `Cc1cc(C)cc(CC(=O)N2CCC2(C)C(=O)N(Cc2ccc(Cl)cc2)CC(C)O)c1` (stereo not shown) [Compound 72, 1-[2-(3,5-Dimethyl-phenyl)-acetyl]-2-methyl-azetidine-2-carboxylic acid (4-chloro-benzyl)-(2-hydroxy-propyl)-amide]: the pIC50 at GPR43 [1] is 6.30 to 7.00; at GPR43 [2], 6.00 to 6.30.

Consider `Cc1cc(C)cc(CC(=O)N2CCC2(C)C(=O)N(Cc2ccc(Cl)cc2)[C@H](C)C(=O)O)c1` (stereo partly drawn) [Compound 74, (R)-2-((4-Chloro-benzyl)-{1-[2-(3,5-dimethyl-phenyl)-acetyl]-2-methyl-azetidine-2-carbonyl}-amino)-propionic acid], for which the pIC50 on GPR43 [1] and on GPR43 [2] was less than 6.00 throughout.

Take `Cc1cc(C)cc(CC(=O)N2CCC2(C)C(=O)N(CC(N)=O)Cc2ccc(Cl)cc2)c1` (stereo not shown) [Compound 75, 1-[2-(3,5-Dimethyl-phenyl)-acetyl]-2-methyl-azetidine-2-carboxylic acid carbamoylmethyl-(4-chloro-benzyl)-amide]: the pIC50 at GPR43 [1] and at GPR43 [2] was 6.30 to 7.00 in each case.

Consider `Cc1cc(C)cc(CC(=O)N2CCC2(C)C(=O)N(CCC#N)Cc2ccc(Cl)cc2)c1` (stereo not shown) [Compound 77, 1-[2-(3,5-Dimethyl-phenyl)-acetyl]-2-methyl-azetidine-2-carboxylic acid (4-chloro-benzyl)-(2-cyano-ethyl)-amide], for which the values for the pIC50 at GPR43 [1] and at GPR43 [2] were 6.30 to 7.00 and less than 6.00, respectively.

On to `CC1(C(=O)N(CC(=O)O)Cc2ccc(Cl)cc2)CCN1C(=O)Cc1coc2ccccc12` (stereo not shown) [Compound 78, [[1-(2-Benzofuran-3-yl-acetyl)-2-methyl-azetidine-2-carbonyl]-(4-chloro-benzyl)-amino]-acetic acid], for which the pIC50 at GPR43 [1] and at GPR43 [2] was 6.30 to 7.00 each time.

As to `CC1(C(=O)N(CC(=O)O)Cc2ccc(Cl)cc2)CCN1C(=O)Cc1noc2ccccc12` (stereo not shown) [Compound 79, [[1-(2-Benzo[d]isoxazol-3-yl-acetyl)-2-methyl-azetidine-2-carbonyl]-(4-chloro-benzyl)-amino]-acetic acid], the pIC50 on GPR43 [1] and at GPR43 [2] was less than 6.00 throughout.

On to `Cc1cc(C)cc(CC(=O)N2CCC2(C)C(=O)N(CC(=O)NC(C)C)Cc2ccc(Cl)cc2)c1` (stereo not shown) [Compound 80, 1-[2-(3,5-Dimethyl-phenyl)-acetyl]-2-methyl-azetidine-2-carboxylic acid (4-chloro-benzyl)-(isopropylcarbamoyl-methyl)-amide], for which the pIC50 on GPR43 [1] and on GPR43 [2] was less than 6.00 in each case.

For the molecule `Cc1cc(C)cc(CC(=O)N2CC[C@]2(C)C(=O)N(CC(=O)O)Cc2ccc(Cl)cc2)c1` [Compound 82, ((4-Chloro-benzyl)-{(R)-1-[2-(3,5-dimethyl-phenyl)-acetyl]-2-methyl-azetidine-2-carbonyl}-amino)-acetic acid], the pIC50 on GPR43 [1] and at GPR43 [2] was 6.30 to 7.00 in each case.

The record behind these values is US8759334B2, “Compounds useful for the treatment of metabolic and inflammatory diseases” (Galapagos NV, priority 2011, dated 2014).
